Measured values taken from patent US9850283B2, “Macrocyclic inhibitors of the PD-1/PD-L1 and CD80(B7-1)/PD-L1 protein/protein interactions” (BRISTOL-MYERS SQUIBB COMPANY, priority 2013, dated 2017).
Positions of bridges follow the written chain, without caps; N, C: chain ends. Non-standard residues stand in square brackets, D forms with d. Residues, ends and D or L forms follow the SMILES beside them. ξ: configuration not given here. NMeIle(3ξ) = CCC(C)[C@H](NC)C(=O)O; Hyp = O=C(O)[C@@H]1C[C@@H](O)CN1; NMeF = CN[C@@H](Cc1ccccc1)C(=O)O; NMeL = CN[C@@H](CC(C)C)C(=O)O; NMeNle = CCCC[C@H](NC)C(=O)O; NMeA = CN[C@@H](C)C(=O)O; Orn = NCCC[C@H](N)C(=O)O; Dab = NCC[C@H](N)C(=O)O; Dap = NC[C@H](N)C(=O)O

What was measured:
Human PD-L1/PD-1 = molecular target: T1, Human PD-L1/PD-1 (Homo sapiens, UniProt Q9NZQ7); experiment: HTRF PD-1-Ig/PD-L1-His binding assay (human PD-L1); conditions: cluster symbol; read-out: HTRF IC50 cluster
T1 construct: made in house; host or cells: HEK293T
T1 sequence (Q9NZQ7 with tags, fused parts or gaps): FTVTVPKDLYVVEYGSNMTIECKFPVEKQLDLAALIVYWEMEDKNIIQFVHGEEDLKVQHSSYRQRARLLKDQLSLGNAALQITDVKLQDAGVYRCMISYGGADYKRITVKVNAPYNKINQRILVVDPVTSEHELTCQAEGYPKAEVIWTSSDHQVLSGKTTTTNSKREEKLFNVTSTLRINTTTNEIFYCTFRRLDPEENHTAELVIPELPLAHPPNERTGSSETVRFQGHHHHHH
Procedure, shortened: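 The time-resolved fluorescence signal comes from Eu-cryptate anti-Ig (1 nM) and APC anti-His (20 nM) antibodies bound to a PD-1-Ig/PD-L1-His complex. Both partners lack transmembrane regions.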

[1] = molecular target: T2, LK35.2-hPD-L1 cells / PE-labeled PD-1-Ig (Homo sapiens, UniProt Q9NZQ7); experiment: LK35.2-hPD-L1 cell binding high-content screening assay; assay type: cell-based; conditions: cell binding assay, cell line not given; cluster symbol; read-out: CBA IC50 cluster
T2 construct: expressed in transfected cells; host or cells: LK35.2 mouse B cell line
T2 sequence (Q9NZQ7 19-290): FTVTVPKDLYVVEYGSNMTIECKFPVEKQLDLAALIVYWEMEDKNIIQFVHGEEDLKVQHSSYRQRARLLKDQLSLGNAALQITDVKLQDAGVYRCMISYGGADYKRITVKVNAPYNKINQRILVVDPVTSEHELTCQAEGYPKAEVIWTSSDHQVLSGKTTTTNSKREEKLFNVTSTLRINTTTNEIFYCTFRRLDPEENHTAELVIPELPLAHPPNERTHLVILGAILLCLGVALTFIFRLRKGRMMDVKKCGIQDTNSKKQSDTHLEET
Procedure, shortened: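 Mouse LK35.2 B cells stably over-expressing human PD-L1, cultured overnight, treated with compound plus PE-labeled human PD-1-Ig (1 nM final) in RPMI/10% FCS for 1 h at 37 °C. After washing, bound fluorescence quantified by high-content imaging.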

CCCC[C@H]1C(=O)N(C)[C@@H](CCCC)C(=O)N[C@@H](CCCNC(=N)N)C(=O)N[C@H](C(=O)NCC(N)=O)CSCC(=O)N[C@@H](Cc2ccc(O)cc2)C(=O)N(C)[C@@H](C)C(=O)N[C@@H](CCN)C(=O)N2CCC[C@H]2C(=O)N[C@@H](CN)C(=O)N[C@@H](CCC(=O)O)C(=O)N2C[C@H](O)C[C@H]2C(=O)N[C@@H](Cc2c[nH]c3ccccc23)C(=O)N[C@@H](CO)C(=O)N[C@@H](Cc2c[nH]c3ccccc23)C(=O)N1C [Example 5131] ({CH2CO}-Y[NMeA][Dab]P[Dap]E[Hyp]WSW[NMeNle][NMeNle]RCG-NH2; thioether N-14)
IC50 (Human PD-L1/PD-1): 0.385 to 6.74 nM
IC50 [1]: 0.158 to 4.71 nM

CCCC[C@H]1C(=O)N(C)[C@@H](CCCC)C(=O)N[C@@H](CCCNC(=N)N)C(=O)N[C@H](C(=O)NCC(N)=O)CSCC(=O)N[C@@H](Cc2ccc(O)cc2)C(=O)N(C)[C@@H](C)C(=O)N[C@@H](CCN)C(=O)N2CCC[C@H]2C(=O)N[C@@H](Cc2c[nH]cn2)C(=O)N[C@@H](CC(=O)O)C(=O)N2C[C@H](O)C[C@H]2C(=O)N[C@@H](Cc2c[nH]c3ccccc23)C(=O)N[C@@H](CO)C(=O)N[C@@H](Cc2c[nH]c3ccccc23)C(=O)N1C [Example 5132] ({CH2CO}-Y[NMeA][Dab]PHD[Hyp]WSW[NMeNle][NMeNle]RCG-NH2; thioether N-14)
IC50 (Human PD-L1/PD-1): 6.76 to 30.3 nM
IC50 [1]: 4.78 to 72.9 nM

CCCC[C@H]1C(=O)N(C)[C@@H](CCCC)C(=O)N[C@@H](CC(C)C)C(=O)N[C@H](C(=O)NCC(N)=O)CSCC(=O)N[C@@H](Cc2ccc(O)cc2)C(=O)N(C)[C@@H](C)C(=O)N[C@@H](CCN)C(=O)N2CCC[C@H]2C(=O)N[C@@H](Cc2c[nH]cn2)C(=O)N[C@@H](CCC(=O)O)C(=O)N2C[C@H](O)C[C@H]2C(=O)N[C@@H](Cc2c[nH]c3ccccc23)C(=O)N[C@@H](CO)C(=O)N[C@@H](Cc2c[nH]c3ccccc23)C(=O)N1C [Example 5133] ({CH2CO}-Y[NMeA][Dab]PHE[Hyp]WSW[NMeNle][NMeNle]LCG-NH2; thioether N-14)
IC50 (Human PD-L1/PD-1): 0.385 to 6.74 nM
IC50 [1]: 4.78 to 72.9 nM

CCCC[C@H]1C(=O)N(C)[C@@H](CCCC)C(=O)N[C@@H](CCCNC(=N)N)C(=O)N[C@H](C(=O)NCC(N)=O)CSCC(=O)N[C@@H](Cc2ccc(O)cc2)C(=O)N(C)[C@@H](C)C(=O)N[C@@H](CN)C(=O)N2CCC[C@H]2C(=O)N[C@@H](Cc2c[nH]cn2)C(=O)N[C@@H](CC(=O)O)C(=O)N2C[C@H](O)C[C@H]2C(=O)N[C@@H](Cc2c[nH]c3ccccc23)C(=O)N[C@@H](CO)C(=O)N[C@@H](Cc2c[nH]c3ccccc23)C(=O)N1C [Example 5134] ({CH2CO}-Y[NMeA][Dap]PHD[Hyp]WSW[NMeNle][NMeNle]RCG-NH2; thioether N-14)
IC50 (Human PD-L1/PD-1): 0.385 to 6.74 nM
IC50 [1]: 4.78 to 72.9 nM

CCCC[C@H]1C(=O)N(C)[C@@H](CCCC)C(=O)N[C@@H](CO)C(=O)N[C@H](C(=O)NCC(N)=O)CSCC(=O)N[C@@H](Cc2ccc(O)cc2)C(=O)N(C)[C@@H](C)C(=O)N[C@@H](CO)C(=O)N2CCC[C@H]2C(=O)N[C@@H](CO)C(=O)N[C@@H](CO)C(=O)N2C[C@H](O)C[C@H]2C(=O)N[C@@H](Cc2c[nH]c3ccccc23)C(=O)N[C@@H](CO)C(=O)N[C@@H](Cc2c[nH]c3ccccc23)C(=O)N1C [Example 5135] ({CH2CO}-Y[NMeA]SPSS[Hyp]WSW[NMeNle][NMeNle]SCG-NH2; thioether N-14)
IC50 (Human PD-L1/PD-1): 6.76 to 30.3 nM
IC50 [1]: 4.78 to 72.9 nM

CCCC[C@H]1C(=O)N(C)[C@@H](CCCC)C(=O)N[C@@H](CCC(=O)O)C(=O)N[C@H](C(=O)NCC(N)=O)CSCC(=O)N[C@@H](Cc2ccc(O)cc2)C(=O)N(C)[C@@H](C)C(=O)N[C@@H](CC(=O)O)C(=O)N2CCC[C@H]2C(=O)N[C@@H](Cc2c[nH]cn2)C(=O)N[C@@H](CCCN)C(=O)N2C[C@H](O)C[C@H]2C(=O)N[C@@H](Cc2c[nH]c3ccccc23)C(=O)N[C@@H](CCCCN)C(=O)N[C@@H](Cc2c[nH]c3ccccc23)C(=O)N1C [Example 5137] ({CH2CO}-Y[NMeA]DPH[Orn][Hyp]WKW[NMeNle][NMeNle]ECG-NH2; thioether N-14)
IC50 (Human PD-L1/PD-1): 0.385 to 6.74 nM
IC50 [1]: 0.158 to 4.71 nM

CCCC[C@H]1C(=O)N(C)[C@@H](CCCC)C(=O)N[C@@H](CCC(=O)O)C(=O)N[C@H](C(=O)NCC(N)=O)CSCC(=O)N[C@@H](Cc2ccc(O)cc2)C(=O)N(C)[C@@H](C)C(=O)N[C@@H](CCC(=O)O)C(=O)N2CCC[C@H]2C(=O)N[C@@H](Cc2c[nH]cn2)C(=O)N[C@@H](CCCN)C(=O)N2C[C@H](O)C[C@H]2C(=O)N[C@@H](Cc2c[nH]c3ccccc23)C(=O)N[C@@H](CCCCN)C(=O)N[C@@H](Cc2c[nH]c3ccccc23)C(=O)N1C [Example 5138] ({CH2CO}-Y[NMeA]EPH[Orn][Hyp]WKW[NMeNle][NMeNle]ECG-NH2; thioether N-14)
IC50 (Human PD-L1/PD-1): 0.385 to 6.74 nM
IC50 [1]: 0.158 to 4.71 nM

CCCC[C@H]1C(=O)N(C)[C@@H](CCCC)C(=O)N[C@@H](CCCCN)C(=O)N[C@H](C(=O)NCC(N)=O)CSCC(=O)N[C@@H](Cc2ccc(O)cc2)C(=O)N(C)[C@@H](C)C(=O)N[C@@H](CC(N)=O)C(=O)N2CCC[C@H]2C(=O)N[C@@H](Cc2c[nH]cn2)C(=O)N[C@@H](CCC(=O)O)C(=O)N2C[C@H](O)C[C@H]2C(=O)N[C@@H](Cc2c[nH]c3ccccc23)C(=O)N[C@@H](CO)C(=O)N[C@@H](Cc2c[nH]c3ccccc23)C(=O)N1C [Example 5139] ({CH2CO}-Y[NMeA]NPHE[Hyp]WSW[NMeNle][NMeNle]KCG-NH2; thioether N-14)
IC50 (Human PD-L1/PD-1): 0.385 to 6.74 nM
IC50 [1]: 0.158 to 4.71 nM

CCCC[C@H]1C(=O)N(C)[C@@H](CCCC)C(=O)N[C@@H](CCN)C(=O)N[C@H](C(=O)NCC(N)=O)CSCC(=O)N[C@@H](Cc2ccc(O)cc2)C(=O)N(C)[C@@H](C)C(=O)N[C@@H](CCN)C(=O)N2CCC[C@H]2C(=O)N[C@@H](CN)C(=O)N[C@@H](CC(C)C)C(=O)N2C[C@H](O)C[C@H]2C(=O)N[C@@H](Cc2c[nH]c3ccccc23)C(=O)N[C@@H](CCN)C(=O)N[C@@H](Cc2c[nH]c3ccccc23)C(=O)N1C [Example 5140] ({CH2CO}-Y[NMeA][Dab]P[Dap]L[Hyp]W[Dab]W[NMeNle][NMeNle][Dab]CG-NH2; thioether N-14)
IC50 (Human PD-L1/PD-1): 6.76 to 30.3 nM
IC50 [1]: 4.78 to 72.9 nM

CCCC[C@H]1C(=O)N(C)[C@@H](CC(C)C)C(=O)N[C@@H](CN)C(=O)N[C@H](C(=O)NCC(N)=O)CSCC(=O)N[C@@H](Cc2ccc(O)cc2)C(=O)N(C)[C@@H](C)C(=O)N[C@@H](CC(N)=O)C(=O)N2CCC[C@H]2C(=O)N[C@@H](Cc2c[nH]cn2)C(=O)N[C@@H](CCC(=O)O)C(=O)N2C[C@H](O)C[C@H]2C(=O)N[C@@H](Cc2c[nH]c3ccccc23)C(=O)N[C@@H](CCN)C(=O)N[C@@H](Cc2c[nH]c3ccccc23)C(=O)N1C [Example 5141] ({CH2CO}-Y[NMeA]NPHE[Hyp]W[Dab]W[NMeNle][NMeL][Dap]CG-NH2; thioether N-14)
IC50 (Human PD-L1/PD-1): 0.385 to 6.74 nM
IC50 [1]: 4.78 to 72.9 nM

CCCC[C@H]1C(=O)N(C)[C@@H](C(C)CC)C(=O)N[C@@H](CN)C(=O)N[C@H](C(=O)NCC(N)=O)CSCC(=O)N[C@@H](Cc2ccc(O)cc2)C(=O)N(C)[C@@H](C)C(=O)N[C@@H](CC(N)=O)C(=O)N2CCC[C@H]2C(=O)N[C@@H](Cc2c[nH]cn2)C(=O)N[C@@H](CCC(=O)O)C(=O)N2C[C@H](O)C[C@H]2C(=O)N[C@@H](Cc2c[nH]c3ccccc23)C(=O)N[C@@H](CCN)C(=O)N[C@@H](Cc2c[nH]c3ccccc23)C(=O)N1C (stereo partly shown) [Example 5142] ({CH2CO}-Y[NMeA]NPHE[Hyp]W[Dab]W[NMeNle][NMeIle(3ξ)][Dap]CG-NH2; thioether N-14)
IC50 (Human PD-L1/PD-1): 6.76 to 30.3 nM
IC50 [1]: 4.78 to 72.9 nM

CCCC[C@H]1C(=O)N[C@@H](CN)C(=O)N[C@H](C(=O)NCC(N)=O)CSCC(=O)N[C@@H](Cc2ccc(O)cc2)C(=O)N(C)[C@@H](C)C(=O)N[C@@H](CC(N)=O)C(=O)N2CCC[C@H]2C(=O)N[C@@H](Cc2c[nH]cn2)C(=O)N[C@@H](CCC(=O)O)C(=O)N2C[C@H](O)C[C@H]2C(=O)N[C@@H](Cc2c[nH]c3ccccc23)C(=O)N[C@@H](CCN)C(=O)N[C@@H](Cc2c[nH]c3ccccc23)C(=O)N(C)[C@@H](CC(C)C)C(=O)N1C [Example 5143] ({CH2CO}-Y[NMeA]NPHE[Hyp]W[Dab]W[NMeL][NMeNle][Dap]CG-NH2; thioether N-14)
IC50 (Human PD-L1/PD-1): 0.385 to 6.74 nM
IC50 [1]: 4.78 to 72.9 nM

CCCC[C@H]1C(=O)N[C@@H](CN)C(=O)N[C@H](C(=O)NCC(N)=O)CSCC(=O)N[C@@H](Cc2ccc(O)cc2)C(=O)N(C)[C@@H](C)C(=O)N[C@@H](CC(N)=O)C(=O)N2CCC[C@H]2C(=O)N[C@@H](Cc2c[nH]cn2)C(=O)N[C@@H](CCC(=O)O)C(=O)N2C[C@H](O)C[C@H]2C(=O)N[C@@H](Cc2c[nH]c3ccccc23)C(=O)N[C@@H](CCN)C(=O)N[C@@H](Cc2c[nH]c3ccccc23)C(=O)N(C)[C@@H](Cc2ccccc2)C(=O)N1C [Example 5144] ({CH2CO}-Y[NMeA]NPHE[Hyp]W[Dab]W[NMeF][NMeNle][Dap]CG-NH2; thioether N-14)
IC50 (Human PD-L1/PD-1): 0.385 to 6.74 nM
IC50 [1]: 0.158 to 4.71 nM

CCCC[C@H]1C(=O)N[C@@H](CN)C(=O)N[C@H](C(=O)NCC(N)=O)CSCC(=O)N[C@@H](Cc2ccc(O)cc2)C(=O)N(C)[C@@H](C)C(=O)N[C@@H](CC(N)=O)C(=O)N2CCC[C@H]2C(=O)N[C@@H](Cc2c[nH]cn2)C(=O)N[C@@H](CCC(=O)O)C(=O)N2C[C@H](O)C[C@H]2C(=O)N[C@@H](Cc2c[nH]c3ccccc23)C(=O)N[C@@H](CCN)C(=O)N[C@@H](Cc2c[nH]c3ccccc23)C(=O)N(C)[C@@H](C(C)CC)C(=O)N1C (stereo partly shown) [Example 5146] ({CH2CO}-Y[NMeA]NPHE[Hyp]W[Dab]W[NMeIle(3ξ)][NMeNle][Dap]CG-NH2; thioether N-14)
IC50 (Human PD-L1/PD-1): 6.76 to 30.3 nM
IC50 [1]: 4.78 to 72.9 nM
